# BindingDB's records for PubMed 38171251 (Indian Institute of Technology (Banaras Hindu University))
# Test: Inhibition of Acetyl-CoA acetyltransferase (unknown origin)
row,SMILES,IC50 [µM]
1,Cc1ccccc1CNC1=Nc2ccccc2NC12CCNCC2,0.025
2,Clc1ccccc1CNC1=Nc2ccccc2NC12CCNCC2,0.022
3,Clc1cccc(CNC2=Nc3ccccc3NC23CCNCC3)c1,0.022
4,Cc1ccc(CNC2=Nc3ccccc3NC23CCCCC3)cc1,0.269
5,CC1CCC2(CC1)Nc1ccccc1N=C2NCc1ccccc1Cl (stereo unspecified),0.171
6,CC1CCC2(CC1)NC=CN=C2NCc1ccccc1Cl (stereo unspecified),> 1
